# Reference: paper PMC4628711, “Antiproliferative and Antiestrogenic Activities of Bonediol an Alkyl Catechol from Bonellia macrocarpa” (BioMed Research International, 2015)
# Columns and labels:
# [1] = biological target: T1, ERα (estrogen receptor α) (Homo sapiens, UniProt P03372); assay: competitive [3H]-17β-estradiol radioligand binding, in vitro translated receptor (TNT reticulocyte lysate)
# T1 construct: gene ESR1
# T1 sequence (P03372 1-595): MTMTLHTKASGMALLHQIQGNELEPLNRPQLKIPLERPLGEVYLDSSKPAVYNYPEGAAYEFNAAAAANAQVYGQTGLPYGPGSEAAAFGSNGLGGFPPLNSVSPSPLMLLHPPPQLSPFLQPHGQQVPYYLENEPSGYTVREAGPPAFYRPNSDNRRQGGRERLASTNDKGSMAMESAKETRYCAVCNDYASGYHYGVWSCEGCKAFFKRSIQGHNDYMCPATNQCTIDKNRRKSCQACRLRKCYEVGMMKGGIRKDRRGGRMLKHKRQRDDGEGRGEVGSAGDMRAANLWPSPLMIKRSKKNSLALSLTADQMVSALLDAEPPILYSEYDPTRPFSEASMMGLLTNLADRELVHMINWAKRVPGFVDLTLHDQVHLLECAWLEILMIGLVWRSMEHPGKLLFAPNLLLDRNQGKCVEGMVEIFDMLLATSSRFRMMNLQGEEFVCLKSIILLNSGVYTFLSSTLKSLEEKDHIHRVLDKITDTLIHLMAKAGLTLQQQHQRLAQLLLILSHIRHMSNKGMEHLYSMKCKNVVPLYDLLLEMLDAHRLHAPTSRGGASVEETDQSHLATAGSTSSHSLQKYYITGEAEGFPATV
# [2] = biological target: T2, ERβ (estrogen receptor β) (Homo sapiens, UniProt Q92731); assay: as above
# T2 construct: gene ESR2
# T2 sequence (Q92731 whole entry): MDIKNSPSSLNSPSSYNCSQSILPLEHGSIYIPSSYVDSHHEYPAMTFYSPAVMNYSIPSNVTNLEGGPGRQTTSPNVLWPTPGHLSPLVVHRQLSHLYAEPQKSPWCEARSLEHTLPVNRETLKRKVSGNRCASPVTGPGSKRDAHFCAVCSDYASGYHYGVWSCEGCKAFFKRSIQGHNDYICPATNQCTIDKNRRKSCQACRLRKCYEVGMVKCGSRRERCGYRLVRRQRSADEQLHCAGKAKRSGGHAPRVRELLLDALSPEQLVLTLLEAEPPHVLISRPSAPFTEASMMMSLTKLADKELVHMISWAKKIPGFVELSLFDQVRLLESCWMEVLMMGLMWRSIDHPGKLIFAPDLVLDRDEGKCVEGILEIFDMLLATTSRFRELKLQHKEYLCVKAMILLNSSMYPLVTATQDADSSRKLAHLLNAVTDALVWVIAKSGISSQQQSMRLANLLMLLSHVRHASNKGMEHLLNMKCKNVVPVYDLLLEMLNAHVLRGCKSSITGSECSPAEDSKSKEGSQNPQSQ
substance,measurement,setting,value
bonediol,IC50,[1],2500 nM
same,IC50,[2],2100 nM
